Measured values taken from PMC8452302 (CPT: Pharmacometrics & Systems Pharmacology, 2021).
Read-outs that look alike come from different tables or passages of the source.

Assays:
[1] = biological target: T1, OATP1B1 (Homo sapiens, UniProt Q9Y6L6); assay: Static DDI risk assessment, OATP1B1 R-value; details: 1 + Iin,max,u/IC50; metabolite/combination additive; Imax,u for IV
T1 sequence (Q9Y6L6 1-691): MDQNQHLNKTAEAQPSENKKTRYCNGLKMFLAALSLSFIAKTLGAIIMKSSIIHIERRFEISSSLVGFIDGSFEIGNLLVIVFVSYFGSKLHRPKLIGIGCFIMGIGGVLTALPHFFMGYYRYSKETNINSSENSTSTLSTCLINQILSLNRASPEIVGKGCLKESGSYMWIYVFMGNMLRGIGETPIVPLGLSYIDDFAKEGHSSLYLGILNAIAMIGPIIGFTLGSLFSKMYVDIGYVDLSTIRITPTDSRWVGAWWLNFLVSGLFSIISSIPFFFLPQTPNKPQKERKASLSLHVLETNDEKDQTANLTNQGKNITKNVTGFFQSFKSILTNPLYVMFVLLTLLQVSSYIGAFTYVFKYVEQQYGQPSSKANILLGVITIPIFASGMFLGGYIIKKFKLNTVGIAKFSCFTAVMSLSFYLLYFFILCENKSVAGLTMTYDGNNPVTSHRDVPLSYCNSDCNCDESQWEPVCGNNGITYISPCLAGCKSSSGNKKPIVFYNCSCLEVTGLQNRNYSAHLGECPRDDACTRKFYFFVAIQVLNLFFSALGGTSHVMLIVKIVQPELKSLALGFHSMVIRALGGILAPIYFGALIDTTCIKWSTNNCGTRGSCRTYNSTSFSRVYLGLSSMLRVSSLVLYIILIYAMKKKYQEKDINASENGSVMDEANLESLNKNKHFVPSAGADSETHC

[2] = cited from earlier work; for Rosuvastatin AUC ratio: observed, rosuvastatin with vs without inhibitor; for Rosuvastatin AUC ratio / Cmax ratio Observed: ref Table S1; for Cmax ratio Observed: rosuvastatin with/without inhibitor, regimens as in table row
[3] = biological target: T2, BCRP (Homo sapiens, UniProt Q9UNQ0); assay: In vitro BCRP inhibition, HEK293-BCRP membrane vesicles, rosuvastatin probe; assay type: biochemical
T2 sequence (Q9UNQ0 1-655): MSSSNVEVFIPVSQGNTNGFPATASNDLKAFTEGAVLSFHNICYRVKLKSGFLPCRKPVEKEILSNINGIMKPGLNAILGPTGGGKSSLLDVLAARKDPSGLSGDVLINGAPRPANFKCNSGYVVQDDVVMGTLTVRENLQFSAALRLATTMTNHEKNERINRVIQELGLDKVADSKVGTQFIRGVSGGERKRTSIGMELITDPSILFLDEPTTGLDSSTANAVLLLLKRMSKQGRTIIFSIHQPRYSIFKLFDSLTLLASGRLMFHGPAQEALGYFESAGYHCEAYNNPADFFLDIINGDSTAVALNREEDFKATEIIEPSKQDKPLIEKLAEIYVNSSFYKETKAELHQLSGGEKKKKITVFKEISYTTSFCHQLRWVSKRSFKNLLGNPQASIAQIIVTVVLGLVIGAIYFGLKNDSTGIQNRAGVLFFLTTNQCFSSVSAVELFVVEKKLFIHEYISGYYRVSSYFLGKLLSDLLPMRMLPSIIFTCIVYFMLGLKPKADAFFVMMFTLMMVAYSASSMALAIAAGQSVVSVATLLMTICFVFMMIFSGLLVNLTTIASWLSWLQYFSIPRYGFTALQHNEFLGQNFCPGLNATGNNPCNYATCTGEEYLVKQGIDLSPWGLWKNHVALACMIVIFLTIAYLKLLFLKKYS

[4] = biological target: T3, OATP1B3 (Homo sapiens, UniProt Q9NPD5); assay: In vitro OATP1B3 inhibition, transfected HEK293 cells, rosuvastatin probe; assay type: cell-based
T3 sequence (Q9NPD5 1-702): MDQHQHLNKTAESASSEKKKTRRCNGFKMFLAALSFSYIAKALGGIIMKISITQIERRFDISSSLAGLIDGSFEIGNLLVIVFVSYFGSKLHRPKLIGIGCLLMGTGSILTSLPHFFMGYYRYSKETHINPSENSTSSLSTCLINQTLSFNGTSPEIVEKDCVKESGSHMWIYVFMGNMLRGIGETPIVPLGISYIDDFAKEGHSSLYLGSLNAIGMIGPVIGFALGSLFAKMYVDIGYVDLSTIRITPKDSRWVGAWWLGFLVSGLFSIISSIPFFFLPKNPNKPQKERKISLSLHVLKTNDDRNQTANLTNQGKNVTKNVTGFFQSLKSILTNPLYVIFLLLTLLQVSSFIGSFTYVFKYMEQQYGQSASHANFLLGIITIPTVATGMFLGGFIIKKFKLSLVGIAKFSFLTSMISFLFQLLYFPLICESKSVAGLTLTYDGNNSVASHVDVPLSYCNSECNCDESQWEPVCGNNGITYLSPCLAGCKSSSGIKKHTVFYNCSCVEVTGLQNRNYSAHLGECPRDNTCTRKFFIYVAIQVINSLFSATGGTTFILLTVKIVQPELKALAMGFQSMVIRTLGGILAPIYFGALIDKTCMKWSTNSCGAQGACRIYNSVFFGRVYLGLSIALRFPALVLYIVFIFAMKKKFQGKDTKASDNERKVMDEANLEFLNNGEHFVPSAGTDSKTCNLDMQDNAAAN

[5] = biological target: T1, OATP1B1; assay: In vitro OATP1B1 inhibition, transfected HEK293 cells, rosuvastatin probe; assay type: cell-based
[6] = biological target: T3, OATP1B3; assay: Static DDI risk assessment, OATP1B3 R-value; details: 1 + Iin,max,u/IC50; metabolite/combination additive; Imax,u for IV
[7] = system: OATP1B1; details: cited from earlier work

Row | 1B1 R-Value [1] | IC50 [3] [µM] | IC50 [4] [µM] | IC50 [5] [µM] | 1B3 R-Value [6] | IC50 ([3]; read-out: BCRP IC50, membrane vesicles, rosuvastatin 0.2 µM probe) [µM] | SMILES | Rosuvastatin AUC ratio [2] | Cmax ratio Observed [2] | change in plasma exposure of OATP1B1 biomarker coproporphyrin I [7] | increase in rosuvastatin AUC [2] | effect on clinical PK of pitavastatin (OATP1B1 probe substrate) [7] | reduction of renal clearance of rosuvastatin ([2]; probenecid 1000 mg) [%]
1 | 1.01 | 0.95 | 3 | 27.3 | 1.10 | – | CC1=NN(c2ccc(C)c(C)c2)C(=O)/C1=N\Nc1cccc(-c2cccc(C(=O)O)c2)c1O [Eltrombopag] | 1.55 | – | – | – | – | –
2 | 1.46 | 0.63 | 1.1 | 6.8 | 3.86 | – | C[C@H]1CN(C2COC2)CCN1c1ccc(Nc2cc(-c3ccnc(N4CCn5c(cc6c5CC(C)(C)C6)C4=O)c3CO)cn(C)c2=O)nc1 [Fenebrutinib] | 2.48 | 4.74 | no change | ~ 150% | – | –
3 | 1.00 | 0.14 | > 10 | 7.8 | 1.00 | – | COC(=O)N[C@H](C(=O)N1CCC[C@H]1c1nc(-c2ccc3c(c2)O[C@@H](c2ccccc2)n2c-3cc3cc(-c4c[nH]c([C@@H]5CCCN5C(=O)[C@@H](NC(=O)OC)C(C)C)n4)ccc32)c[nH]1)C(C)C [Elbasvir] | 1.42 | – | – | – | – | –

The remaining lines, values behind:

Row | SMILES | 1B1 R-Value [1] | IC50 [3] [µM] | IC50 [4] [µM] | IC50 [5] [µM] | 1B3 R-Value [6] | IC50 ([3]; read-out: BCRP IC50, membrane vesicles, rosuvastatin 0.2 µM probe) [µM] | Rosuvastatin AUC ratio [2] | Cmax ratio Observed [2] | change in plasma exposure of OATP1B1 biomarker coproporphyrin I [7] | increase in rosuvastatin AUC [2] | effect on clinical PK of pitavastatin (OATP1B1 probe substrate) [7] | reduction of renal clearance of rosuvastatin ([2]; probenecid 1000 mg) [%]
4 | CCC(C)n1ncn(-c2ccc(N3CCN(c4ccc(OCC5COC(Cn6cncn6)(c6ccc(Cl)cc6Cl)O5)cc4)CC3)cc2)c1=O (centres unmarked) [Itraconazole] | 1.01 | 3.2 | > 20 | 12.9 | 1.00 | – | 1.26 | 1.38 | – | – | – | –
5 | CC[C@H]1[C@@H](O)[C@@H]2[C@H](CC[C@]3(C)[C@@H]([C@H](C)CCC(=O)O)CC[C@@H]23)[C@@]2(C)CC[C@@H](O)C[C@@H]12 [Obeticholic acid] | 1.02 | 4.1 | 2.15 | 1.96 | 1.02 | – | 1.25 | – | – | – | – | –
6 | CNC(=O)c1ccc(-c2cnc3ncc(Cc4ccc5ncccc5c4)n3n2)cc1F [Capmatinib] | 1.35 | 0.69 | 14.5 | 3.3 | 1.08 | – | 2.03 | 3.05 | – | – | – | –
7 | C=C[C@@H]1C[C@]1(NC(=O)[C@@H]1C[C@@H]2CN1C(=O)[C@H](C(C)(C)C)NC(=O)O[C@@H]1C[C@H]1CCCCCc1nc3ccc(OC)cc3nc1O2)C(=O)NS(=O)(=O)C1CC1.O [Grazoprevir] | 1.24 | – | – | – | 1.07 | 4.03 | 1.59 | 4.25 | – | – | do not alter | –
8 | CO[C@H]1/C=C/O[C@@]2(C)Oc3c(C)c(O)c4c(O)c(c(/C=N/N5CCN(C)CC5)c(O)c4c3C2=O)NC(=O)/C(C)=C\C=C\[C@H](C)[C@H](O)[C@@H](C)[C@@H](O)[C@@H](C)[C@H](OC(C)=O)[C@@H]1C [Rifampicin] | 10.20 | – | 0.73 | 0.29 | 4.65 | – | – | – | – | – | – | –
9 | CCCN(CCC)S(=O)(=O)c1ccc(C(=O)O)cc1 [Probenecid] | 1.99 | 216 | 339 | – | 1.11 | – | – | – | – | – | – | ~80
10 | Cc1ccc(C)c(OCCCC(C)(C)C(=O)O)c1 [Gemfibrozil] | 2.60 | 295 | 10 | – | 1.15 | – | 1.88 | 2.21 | – | – | – | –
